Entries after “also recorded” stand apart in the source; their conditions may differ.
Assays:
[1] = test system: adults with CCR5 tropic HIV-1; test: Study 202 post-hoc APRI and FIB-4 fibrosis index scores; format: in vivo, human
Procedure: APRI and FIB-4 scores were calculated. Change in score category from baseline (BL) to Weeks 24 and 48 was assessed in patients with non-missing data. Correlations between changes from BL in APRI and FIB-4 scores, and MCP-1 (CCR2 ligand) and sCD14 (inflammatory biomarker) levels were evaluated.

[2] = test system: HIV-1 infected subjects; test: Study 202 efficacy and tolerability; format: in vivo, human; details: CVC 100 mg and 200 mg for up to 48 weeks, 115 subjects
[3] = CVC plasma exposures, healthy volunteers vs HIV-infected subjects; format: in vivo, human; details: same dosing conditions; Studies 652-1-111, 652-1-110, 652-2-202
[4] = test system: STAM™ mouse model of Non-alcoholic Steatohepatitis; test: STAM mouse model of NASH, Part 1: anti-NASH/fibrosis effects at week 9; format: in vivo, mice; details: for Body weight / Liver-to-body weight ratio / Collagen Type 1 mRNA expression level (liver, quantitative RT-PCR) / MCP-1 mRNA expression level (liver, quantitative RT-PCR) / TIMP-1 mRNA expression level (liver, quantitative RT-PCR): mean ± SD; for Collagen Type 1 mRNA expression level (liver, quantitative RT-PCR) / MCP-1 mRNA expression level (liver, quantitative RT-PCR) / TIMP-1 mRNA expression level (liver, quantitative RT-PCR): Vehicle 1.00
Procedure: NASH was induced in male mice by a single injection of 200 μg streptozotocin 2 days after birth (causing impaired glucose control), followed by a high fat diet from 4 weeks of age. […] Animals were sacrificed at 9 weeks of age, and biochemical, gene expression, and histologic evaluations of the liver were conducted. […] Group 2-Cenicriviroc 20 mg/kg (CVC-low): […] [table]

[5] = biological target: CCR2 (Homo sapiens, UniProt P41597); test: CCR2 antagonism in in vitro, ex vivo and clinical studies; details: ex vivo, Studies 652-2-201 and 652-2-202
Text: Clinical evidence of CCR2 and CCR5 antagonism was established by measuring changes from baseline in plasma MCP-1 (a ligand of CCR2) concentrations and changes in plasma HIV-RNA (CCR5 co-receptor required for HIV entry), respectively, in these 2 Phase 2 Studies.

[6] = test system: thioacetamide (TAA)-induced hepatic fibrosis; test: Rat model of thioacetamide-induced liver fibrosis and cirrhosis; format: in vivo, Sprague-Dawley rats; details: first 8 weeks
Procedure: Fibrosis was induced in male Sprague-Dawley rats by intraperitoneal administration of TAA 150 mg/kg 3 times/week for 8 weeks. […] Biochemical, gene expression and histologic evaluations of the liver were conducted.

[7] = Tissue distribution in rodents; format: in vivo
Text: Infiltration of various immune cell populations, resulting in inflammation, is a central pathogenic feature following acute- and chronic liver injury. Chronic liver inflammation leads to continuous hepatocyte injury which can lead to fibrosis, cirrhosis, ESLD, and HCC. Interactions between intra-hepatic immune cells lead to increased activation and migration of Kupffer cells and HSCs and are critical events for developing liver fibrosis. Additionally, there is increasing evidence of the role of CCR2 and CCR5 in the pathogenesis of liver fibrosis. These members of the C-C chemokine family are expressed by pro-fibrogenic cells including pro-inflammatory monocytes and macrophages, Kupffer cells, and HSCs. CCR2 signaling plays an important role in the pathogenesis of renal fibrosis through regulation of bone marrow-derived fibroblasts. CCR2- and CCR5-positive monocytes as well as CCR5-positive T lymphocytes are attracted by locally released MCP-1 and RANTES, and can contribute to chronic interstitial inflammation in the kidney. […] Disruption of the intestinal microbiota and its downstream effects on the gut-liver axis both play an important role in metabolic disorders such as obesity, non-alcoholic fatty liver disease (NAFLD) and non-alcoholic steatohepatitis (NASH).

[8] = Phase 1 CVC and pioglitazone co-administration PK and safety study; format: in vivo, healthy subjects; details: CVC 150 mg QD and PGZ 45 mg QD
Procedure: Plasma samples were collected prior to each dose and over 24 hours at the end of each treatment period. Cmax, Cmin, tmax, and AUC0-tau were determined using non-compartmental methods. Geometric means, GMRs and CIs were calculated.

[9] = CVC-high 100 mg/kg/day, week 9, listed as Cenicriviroc
[10] = CVC-high 100 mg/kg/day, week 9, n = 6
[11] = CVC-low 20 mg/kg/day, week 9, listed as Cenicriviroc
[12] = CVC-low 20 mg/kg/day, week 9, n = 6

Sequence of CCR2 (P41597 whole entry): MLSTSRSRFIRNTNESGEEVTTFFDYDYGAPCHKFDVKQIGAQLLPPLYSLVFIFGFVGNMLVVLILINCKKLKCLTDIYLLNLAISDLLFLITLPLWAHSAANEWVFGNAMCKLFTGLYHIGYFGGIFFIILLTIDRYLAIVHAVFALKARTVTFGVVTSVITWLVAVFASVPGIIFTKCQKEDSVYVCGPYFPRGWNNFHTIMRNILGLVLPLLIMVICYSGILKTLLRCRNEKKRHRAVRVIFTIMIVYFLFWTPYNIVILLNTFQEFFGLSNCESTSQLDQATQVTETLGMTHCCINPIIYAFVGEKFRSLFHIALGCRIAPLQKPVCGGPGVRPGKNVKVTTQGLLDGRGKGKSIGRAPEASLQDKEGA

With `CCCCOCCOc1ccc(-c2ccc3c(c2)/C=C(/C(=O)Nc2ccc([S@@+]([O-])Cc4cncn4CCC)cc2)CCCN3CC(C)C)cc1` [CVC, (S)-8-[4-(2-Butoxyethoxy)phenyl]-1-isobutyl-N-(4-{[(1-propyl-1H-imidazol-5-yl)methyl]sulfinyl}phenyl)-1,2,3,4-tetrahydro-1-benzazocine-5-carboxamide] the “subjects with APRI 0.5-1.5” value ([1]; Baseline) was 14%, the “subjects with APRI <0.5” value ([1]; Baseline) was 84% and the “subjects with APRI >1.5” value ([1]; Baseline) was 2%. For the same compound, the “subjects with FIB-4 1.45-3.25” value ([1]; Baseline) was 17%, the “subjects with FIB-4 <1.45” value ([1]; Baseline) was 82% and the “subjects with FIB-4 >3.25” value ([1]; Baseline) was 1%. For the same compound, the “subjects with APRI 0.5-1.5” value ([1]; Week 24) was 7%, the “subjects with APRI <0.5” value ([1]; Week 24) was 93% and the “subjects with APRI decreased 1 category from baseline” value ([1]; Week 24) was 14%. For the same compound, the “subjects with FIB-4 1.45-3.25” value ([1]; Week 24) was 7%, the “subjects with FIB-4 <1.45” value ([1]; Week 24) was 93% and the “subjects with FIB-4 decreased 1 category from baseline” value ([1]; Week 24) was 13%. The “subjects with APRI 0.5-1.5” value ([1]; Week 48) was 8%, the “subjects with APRI <0.5” value ([1]; Week 48) was 91% and the “subjects with APRI >1.5” value ([1]; Week 48) was 1%. The “subjects with APRI decreased 1 category from baseline” value ([1]; Week 48) was 10%, the “subjects with FIB-4 1.45-3.25” value ([1]; Week 48) was 5% and the “subjects with FIB-4 <1.45” value ([1]; Week 48) was 94%. The “subjects with FIB-4 >3.25” value ([1]; Week 48) was 1%, the “subjects with FIB-4 decreased 1 category from baseline” value ([1]; Week 48) was 14% and the “subjects with improvements in APRI and FIB-4 scores over time” value ([1]; pooled data for CVC 100 mg and 200 mg) was ≥ 10%. The “tolerability in HIV-1 infected subjects” value [2] was “generally well tolerated; also recorded: effective and well tolerated”, the “CVC plasma exposures in non-HIV infected healthy volunteers compared to HIV-infected subjects” value [3] was “higher” and the “collagen type 1 mRNA in whole liver lysates, decrease (real-time RT-PCR)” value ([4]; CVC treatment 20 and 100 mg/kg/day, 9 weeks of age) was 27-37%. The Body weight ([4]; CVC-high 100 mg/kg/day, week 9) was 18.7 ± 0.9 g, the Liver-to-body weight ratio ([4]; CVC-high 100 mg/kg/day, week 9) was 7.0±0.8% and the “Collagen Type 1 mRNA expression level (liver, quantitative RT-PCR)” value (“Collagen Type 1 mRNA expression level” below) ([4]; CVC-high 100 mg/kg/day, week 9) was 0.73±0.04. The “MCP-1 mRNA expression level (liver, quantitative RT-PCR)” value ([4]; CVC-high 100 mg/kg/day, week 9) was 1.00±0.53, the “TIMP-1 mRNA expression level (liver, quantitative RT-PCR)” value (“TIMP-1 mRNA expression level” for short) ([4]; CVC-high 100 mg/kg/day, week 9) was 0.80±0.20 and the “Collagen Type 1 mRNA expression level” value [4, 9] was 0.73 ± 0.04. For the same compound, the “MCP-1 mRNA expression level (liver, quantitative RT-PCR)” value [4, 9] was 1.00 ± 0.53, the “TIMP-1 mRNA expression level” value [4, 9] was 0.80 ± 0.20 and the Body weight [4, 9] was 18.7 ± 0.9 g. The Liver-to-body weight ratio [4, 9] was 7.0 ± 0.8%, the “Hepatocyte ballooning score 0 (None), number of mice” value [4, 10] was 1 and the “Hepatocyte ballooning score 1 (Few balloon cells), number of mice” value [4, 10] was 2. For the same compound, the “Hepatocyte ballooning score 2 (Many cells/prominent ballooning), number of mice” value [4, 10] was 3, the “Lobular inflammation score 1 (<2 foci/200x), number of mice” value [4, 10] was 3 and the “Lobular inflammation score 2 (2-4 foci/200x), number of mice” value [4, 10] was 3. For the same compound, the “Steatosis score 0 (<5%), number of mice” value [4, 10] was 1, the “Steatosis score 1 (5-33%), number of mice” value [4, 10] was 5 and the Body weight ([4]; CVC-low 20 mg/kg/day, week 9) was 19.5 ± 2.0 g. The Liver-to-body weight ratio ([4]; CVC-low 20 mg/kg/day, week 9) was 6.9±1.0%, the “Collagen Type 1 mRNA expression level” value ([4]; CVC-low 20 mg/kg/day, week 9) was 0.63±0.10 and the “TIMP-1 mRNA expression level” value ([4]; CVC-low 20 mg/kg/day, week 9) was 0.75±0.32. For the same compound, the “Collagen Type 1 mRNA expression level” value [4, 11] was 0.63 ± 0.10, the “TIMP-1 mRNA expression level” value [4, 11] was 0.75 ± 0.32 and the Body weight [4, 11] was 19.5 ± 2.0 g. For the same compound, the Liver-to-body weight ratio [4, 11] was 6.9 ± 1.0%, the “Hepatocyte ballooning score 1 (Few balloon cells), number of mice” value [4, 12] was 3 and the “Hepatocyte ballooning score 2 (Many cells/prominent ballooning), number of mice” value [4, 12] was 3. The “Lobular inflammation score 1 (<2 foci/200x), number of mice” value [4, 12] was 3, the “Lobular inflammation score 2 (2-4 foci/200x), number of mice” value [4, 12] was 3 and the “Steatosis score 1 (5-33%), number of mice” value [4, 12] was 6. For the same compound, the “general condition throughout the treatment period” value ([4]; CVC-low and CVC-high, until week 9) was “None of the animals in the present study showed deterioration in general condition”, the “antagonism of CCR2” value [5] was “potent and concentration-dependent antagonism” and the “reduction of fibrosis by collagen morphometry” value ([6]; Group 1a: CVC 30 mg/kg/day concurrently with TAA) was 49%. The “reduction of fibrosis by collagen morphometry” value ([6]; Group 1b: CVC 100 mg/kg/day concurrently with TAA) was 38%, the tissue distribution [7] was “high distribution in the liver, mesenteric lymph node, and intestine” and the Cmin on co-administration [8] was “remained unchanged”. The “steady-state Cmax and AUC0-tau on co-administration” value [8] was “modest decrease”.
